Assay results from ChEMBL document CHEMBL1127009, “Fibrinogen receptor antagonists containing a gamma-lactam Gly-Asp isostere” (Bioorg Med Chem Lett, 1993).
Peptide text beside a SMILES is read from it. * marks the point of attachment. Cbz = O=C(OCc1ccccc1)*

Assays:
[1] = biological target: Integrin alpha-IIb/beta-3 (Homo sapiens, UniProt P05106+P08514); test: Inhibition of fibrinogen binding to purified immobilized alpha IIb beta-3 integrin isolated from membranes of human blood platelets.
Homo sapiens = species on record: Homo sapiens; test: Inhibition of ADP-induced aggregation of human blood platelets in the presence of fibrinogen.; format: functional

Sequence of Integrin alpha-IIb/beta-3 (P05106 27-788 limits assumed): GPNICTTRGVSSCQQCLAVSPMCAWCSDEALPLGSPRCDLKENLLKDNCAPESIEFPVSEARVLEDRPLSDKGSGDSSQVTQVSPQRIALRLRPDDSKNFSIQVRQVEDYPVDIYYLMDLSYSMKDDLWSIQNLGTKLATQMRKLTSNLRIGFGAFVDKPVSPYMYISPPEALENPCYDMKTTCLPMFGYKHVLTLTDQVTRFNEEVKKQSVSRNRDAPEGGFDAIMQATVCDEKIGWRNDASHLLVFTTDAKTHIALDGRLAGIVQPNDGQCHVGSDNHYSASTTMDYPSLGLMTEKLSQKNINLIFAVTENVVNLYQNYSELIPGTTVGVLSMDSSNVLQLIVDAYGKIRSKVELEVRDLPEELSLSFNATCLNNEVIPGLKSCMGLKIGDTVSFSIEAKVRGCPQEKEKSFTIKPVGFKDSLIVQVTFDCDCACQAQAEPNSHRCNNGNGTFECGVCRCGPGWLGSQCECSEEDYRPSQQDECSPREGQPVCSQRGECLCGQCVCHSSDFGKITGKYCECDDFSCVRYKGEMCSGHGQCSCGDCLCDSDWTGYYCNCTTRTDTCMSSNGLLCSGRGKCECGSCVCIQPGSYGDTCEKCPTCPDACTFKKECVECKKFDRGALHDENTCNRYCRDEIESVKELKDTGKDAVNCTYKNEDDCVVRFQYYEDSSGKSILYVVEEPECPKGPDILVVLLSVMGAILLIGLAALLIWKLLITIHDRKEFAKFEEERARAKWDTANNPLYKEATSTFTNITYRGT
Sequence of Integrin alpha-IIb/beta-3 (P08514 32-887 limits assumed): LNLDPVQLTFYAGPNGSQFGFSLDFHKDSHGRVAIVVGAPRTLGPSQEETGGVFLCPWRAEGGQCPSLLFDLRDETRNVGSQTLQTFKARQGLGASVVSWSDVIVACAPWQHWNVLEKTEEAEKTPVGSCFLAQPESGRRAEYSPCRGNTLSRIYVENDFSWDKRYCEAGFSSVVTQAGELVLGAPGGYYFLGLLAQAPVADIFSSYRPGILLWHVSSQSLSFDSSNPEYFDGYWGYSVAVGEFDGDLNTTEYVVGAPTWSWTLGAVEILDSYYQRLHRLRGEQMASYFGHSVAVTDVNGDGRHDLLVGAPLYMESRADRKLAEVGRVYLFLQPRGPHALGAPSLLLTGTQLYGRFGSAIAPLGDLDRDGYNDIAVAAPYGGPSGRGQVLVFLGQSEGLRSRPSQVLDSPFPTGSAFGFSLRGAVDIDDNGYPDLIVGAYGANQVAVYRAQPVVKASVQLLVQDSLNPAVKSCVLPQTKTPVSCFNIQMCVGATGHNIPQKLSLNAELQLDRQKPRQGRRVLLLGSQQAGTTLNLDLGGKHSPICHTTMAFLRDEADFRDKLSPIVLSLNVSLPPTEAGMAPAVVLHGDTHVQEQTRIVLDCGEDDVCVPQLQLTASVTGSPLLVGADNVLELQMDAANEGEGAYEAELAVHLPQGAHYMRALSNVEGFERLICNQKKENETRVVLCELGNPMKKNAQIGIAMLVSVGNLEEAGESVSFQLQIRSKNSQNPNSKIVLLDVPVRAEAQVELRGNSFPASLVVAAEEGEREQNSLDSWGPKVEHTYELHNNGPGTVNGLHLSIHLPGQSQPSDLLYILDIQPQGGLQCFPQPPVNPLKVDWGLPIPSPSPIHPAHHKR
Sequence of Integrin alpha-IIb/beta-3 (P08514 891-1039 limits assumed): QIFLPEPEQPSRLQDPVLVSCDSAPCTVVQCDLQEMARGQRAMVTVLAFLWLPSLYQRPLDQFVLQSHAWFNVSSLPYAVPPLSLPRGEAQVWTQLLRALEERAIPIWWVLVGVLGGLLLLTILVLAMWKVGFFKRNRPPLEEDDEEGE

Compound | IC50 [1] | IC50 (Homo sapiens)
COC(=O)[C@H](Cc1ccccc1)NC(=O)[C@H](CC(=O)O)NC(=O)[C@@H](C)NC(=O)[C@H](CCCN=C(N)N)NC(=O)OCc1ccccc1 | > 100000 nM | > 100000 nM
COC(=O)[C@H](Cc1ccccc1)NC(=O)[C@H](CC(=O)O)N1CC[C@H](NC(=O)[C@H](CCCN=C(N)N)NC(=O)OCc2ccccc2)C1=O | 770 nM | 85100 nM
N=C(N)NCCC[C@H](NC(=O)OCc1ccccc1)C(=O)N[C@H]1CCN([C@@H](CC(=O)O)C(=O)N[C@@H](Cn2ccc3ccccc32)C(=O)O)C1=O | 1070 nM | 10000 nM
N=C(N)c1ccc(CC(=O)N[C@H]2CCN([C@@H](CC(=O)O)C(=O)N[C@@H](CC34CC5CC(CC(C5)C3)C4)C(=O)O)C2=O)cc1 | 5 nM | 100 nM
COC(=O)[C@H](Cn1ccc2ccccc21)NC(=O)[C@H](CC(=O)O)N1CC[C@H](NC(=O)[C@H](CCCN=C(N)N)NC(=O)OCc2ccccc2)C1=O | 1220 nM | 25100 nM
N=C(N)c1ccc(CC(=O)N[C@H]2CCN([C@@H](CC(=O)O)C(=O)N[C@@H](Cn3ccc4ccccc43)C(=O)O)C2=O)cc1 | 20 nM | 740 nM
COC(=O)[C@H](CC12CC3CC(CC(C3)C1)C2)NC(=O)[C@H](CC(=O)O)N1CC[C@H](NC(=O)Cc2ccc(C(=N)N)cc2)C1=O | 20 nM | 360 nM
COC(=O)[C@H](Cn1ccc2ccccc21)NC(=O)[C@H](CC(=O)O)N1CC[C@H](NC(=O)Cc2ccc(C(=N)N)cc2)C1=O | 120 nM | 4400 nM
N=C(N)NCCC[C@H](NC(=O)OCc1ccccc1)C(=O)N[C@@H]1CCN([C@@H](CC(=O)O)C(=O)N[C@@H](Cc2ccccc2)C(=O)O)C1=O | > 100000 nM | > 100000 nM
CC(C)[C@H](NC(=O)[C@@H](CC(=O)O)N1CC[C@H](NC(=O)Cc2ccc(C(=N)N)cc2)C1=O)C(=O)O | > 100000 nM | > 100000 nM
COC(=O)[C@H](Cc1ccccc1)NC(=O)[C@H](CC(=O)O)NC(=O)[C@H](C)NC(=O)[C@H](CCCNC(=N)N)NC(=O)OCc1ccccc1 | 78000 nM | > 100000 nM
CC(C)C[C@H](NC(=O)[C@H](CC(=O)O)N1CC[C@H](NC(=O)Cc2ccc(C(=N)N)cc2)C1=O)C(=O)O | 40 nM | 360 nM
N=C(N)c1ccc(CC(=O)N[C@H]2CCN([C@@H](CC(=O)O)C(=O)N[C@H](C(=O)O)C34CC5CC(CC(C5)C3)C4)C2=O)cc1 | 2 nM | 40 nM
COC(=O)[C@H](CC12CC3CC(CC(C3)C1)C2)NC(=O)[C@H](CC(=O)O)N1CC[C@H](NC(=O)[C@H](CCCN=C(N)N)NC(=O)OCc2ccccc2)C1=O | 510 nM | 4000 nM
CC(C)C[C@H](NC(=O)[C@H](CC(=O)O)N1CC[C@H](NC(=O)[C@H](CCCN=C(N)N)NC(=O)OCc2ccccc2)C1=O)C(=O)O | 560 nM | 12800 nM
COC(=O)[C@H](Cc1ccccc1)NC(=O)[C@H](CC(=O)O)NC(=O)CNC(=O)[C@H](CCCN=C(N)N)NC(=O)OCc1ccccc1 (Cbz-RGDF-OMe) | 270 nM | 13000 nM
CC(C)[C@H](NC(=O)[C@H](CC(=O)O)NC(=O)CNC(=O)[C@H](CCCN=C(N)N)NC(=O)OCc1ccccc1)C(=O)O (Cbz-RGDV-OH) | 110 nM | 3100 nM
